Test results as given in patent publication US20100311749A1, “4-BENZOYL-1-SUBSTITUTED-PIPERAZIN-2-ONE DERIVATIVES AS P2X7 MODULATORS” (priority 2007, published 2010).

Molecular target: T1, human P2X7 receptor (Homo sapiens, UniProt Q99572)
T1 construct: expressed in transfected cells
T1 sequence (Q99572 1-595): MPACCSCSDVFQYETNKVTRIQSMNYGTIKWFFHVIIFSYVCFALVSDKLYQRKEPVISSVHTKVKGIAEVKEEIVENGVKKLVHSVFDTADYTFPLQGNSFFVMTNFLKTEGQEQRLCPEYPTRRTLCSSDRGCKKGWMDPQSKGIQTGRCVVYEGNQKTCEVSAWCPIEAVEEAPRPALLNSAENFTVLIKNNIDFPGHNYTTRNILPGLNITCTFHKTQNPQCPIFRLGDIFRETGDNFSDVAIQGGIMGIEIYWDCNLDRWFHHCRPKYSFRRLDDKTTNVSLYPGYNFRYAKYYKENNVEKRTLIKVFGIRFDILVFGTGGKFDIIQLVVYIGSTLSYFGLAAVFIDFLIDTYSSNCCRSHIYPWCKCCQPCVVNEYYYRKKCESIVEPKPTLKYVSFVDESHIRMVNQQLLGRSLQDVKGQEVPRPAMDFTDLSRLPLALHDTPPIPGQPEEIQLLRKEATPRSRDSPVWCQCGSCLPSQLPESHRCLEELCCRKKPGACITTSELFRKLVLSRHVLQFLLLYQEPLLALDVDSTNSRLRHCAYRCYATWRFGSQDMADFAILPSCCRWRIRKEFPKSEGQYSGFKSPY
Experiment: Ethidium Accumulation Assay
Format: cell-based
Conditions: HEK293 cells stably expressing human recombinant P2X7 receptors; 1 mM ATP; values given as 'about'; read-out: pIC50 for human P2X7 receptor antagonist activity (blocking ATP responses) in the Ethidium Accumulation Assay (converted)
Experimental: Studies were performed using NaCl assay buffer of the following composition: 140 mM NaCl, 10 mM HEPES [4-(2-hydroxyethyl)-1-piperazine-1-ethanesulfonic acid], 5 mM N-methyl-D-glucamine, 5.6 mM KCl, 10 mM D-glucose, 0.5 mM CaCl2 (pH 7.4).
Human Embryonic Kidney (HEK) 293 cells, stably expressing human recombinant P2X7 receptors, were grown in poly-D-lysine pre-treated 96 well plates for 18-24 hours. […] The cells were washed twice with 350 μl of the assay buffer, before addition of 50 μl of the assay buffer containing the putative P2X7 receptor antagonist compound. (A small amount of dimethyl sulfoxide, for initially dissolving the compound, is optionally used and present in this 50 μl test compound sample.) The cells were then incubated at room temperature (19-21° C.) for 30 min before addition of ATP and ethidium (100 μM final assay concentration). The ATP concentration was chosen to be close to the EC80 for the receptor type and was 1 mM for studies on the human P2X7 receptor. Incubations were continued for 8 or 16 min and were terminated by addition of 25 μl of 1.3M sucrose containing 4 mM of the P2X7 receptor antagonist Reactive Black 5 (Aldrich). […] Antagonist pIC50 values for blocking ATP responses were determined using iterative curve fitting techniques.

IC50 [nM]	SMILES
2.51 to 100	CC(c1ccccc1)N1CCN(C(=O)c2cccc(C(F)(F)F)c2Cl)CC1=O (centres unmarked) [Example 85, 4-{[2-chloro-3-(trifluoromethyl)phenyl]carbonyl}-1-(1-phenylethyl)-2-piperazinone]
2.51 to 100	CC(C)Oc1cc(F)ccc1N1CCN(C(=O)c2cccc(Cl)c2Cl)CC1=O [Example 58, 4-[(2,3-dichlorophenyl)carbonyl]-1-{4-fluoro-2-[(1-methylethyl)oxy]phenyl}-2-piperazinone]
2.51 to 100	CC(C)c1ccccc1N1CCN(C(=O)c2cccc(C(F)(F)F)c2Cl)CC1=O [Example 25, 4-{[2-chloro-3-(trifluoromethyl)phenyl]carbonyl}-1-[2-(1-methylethyl)phenyl]-2-piperazinone]
2.51 to 100	CC(C)Oc1cc(F)ccc1N1CCN(C(=O)c2cccc(C(F)(F)F)c2Cl)CC1=O [Example 57, 4-{[2-chloro-3-(trifluoromethyl)phenyl]carbonyl}-1-{4-fluoro-2-[(1-methylethyl)oxy]phenyl}-2-piperazinone]
2.51 to 100	Cc1c(N2CCOCC2)cccc1N1CCN(C(=O)c2cccc(C(F)(F)F)c2Cl)CC1=O [Example 81, 4-{[2-chloro-3-(trifluoromethyl)phenyl]carbonyl}-1-[2-methyl-3-(4-morpholinyl)phenyl]-2-piperazinone]
5.01 to 200	O=C(c1cccc(Cl)c1Cl)N1CCN(c2ccc(F)cc2Cl)C(=O)C1 [Example 11, 1-(2-Chloro-4-fluorophenyl)-4-[(2,3-dichlorophenyl)carbonyl]-2-piperazinone]
2.51 to 100	O=C(c1cccc(Cl)c1Cl)N1CCN(c2cccc3ccccc23)C(=O)C1 [Example 22, 4-[(2,3-dichlorophenyl)carbonyl]-1-(1-naphthalenyl)-2-piperazinone]
2.51 to 100	O=C(c1c(Cl)cccc1Cl)N1CCN(c2ccc(F)cc2Cl)C(=O)C1 [Example 31, 1-(2-chloro-4-fluorophenyl)-4-[(2,6-dichlorophenyl)carbonyl]-2-piperazinone]
